The experiment addresses T1, Recombinant human H-PGDS (Homo sapiens, UniProt O60760).
T1 construct: made in house; host or cells: E. coli
Nature of the experiment: H-PGDS inhibitory activity (prostaglandin D2 production from prostaglandin H2, measured by LC-MS/MS). The experiment is classed as biochemical. Conditions: recombinant human H-PGDS 1.0 nM expressed in E. coli; prostaglandin H2 25 μM; preincubated 15 minutes on ice, reacted on ice for 1 minute; concentration that inhibits prostaglandin D2 production by 50%. In outline:
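PGD2 formed from 25 µM prostaglandin H2 during a 1-min on-ice reaction was measured by LC-MS/MS after an FeCl2/citric acid stop. The enzyme was 1.0 nM E. coli-expressed human H-PGDS in Tris-HCl pH 8.0 buffer with MgCl2, reduced glutathione and γ-globulin, preincubated with compound for 15 min on ice. Production was normalised to DMSO controls minus the no-enzyme background.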

Molecules are shown by their SMILES.

A word on the IC50: it is the concentration that inhibits the measured activity by half.

T1 sequence (O60760 whole entry): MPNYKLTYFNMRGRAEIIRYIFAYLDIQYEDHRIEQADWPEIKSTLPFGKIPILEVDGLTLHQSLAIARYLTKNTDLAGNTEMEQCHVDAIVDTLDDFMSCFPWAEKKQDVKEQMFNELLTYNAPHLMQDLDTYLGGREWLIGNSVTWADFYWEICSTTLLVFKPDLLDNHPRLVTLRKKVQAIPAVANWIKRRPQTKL

On to `O=C(NC1CCN(c2cnc(CO)cn2)CC1)c1ccc(-c2nccc3occc23)cc1` [Example 170, 4-(furo[3,2-c]pyridin-4-yl)-N-{1-[5-(hydroxymethyl)pyrazin-2-yl]piperidin-4-yl}benzamide], for which the IC50 was determined as 6.2 nM.

`O=C(NC1CCN(c2ccncn2)CC1)c1ccc(-c2nccc3occc23)cc1` [Example 171, 4-(furo[3,2-c]pyridin-4-yl)-N-[1-(pyrimidin-4-yl)piperidin-4-yl]benzamide]: the IC50 came out at 1.9 nM. For `O=C(NC1CCN(c2cccc(=O)[nH]2)CC1)c1ccc(-c2nccc3occc23)cc1` [Example 172, 4-(furo[3,2-c]pyridin-4-yl)-N-[1-(6-oxo-1,6-dihydropyridin-2-yl)piperidin-4-yl]benzamide] the value was 2.6 nM; for `N#Cc1cnc(N2CCC(NC(=O)c3ccc(-c4nccc5occc45)cc3)CC2)nc1` [Example 173, N-[1-(5-cyanopyrimidin-2-yl)piperidin-4-yl]-4-(furo[3,2-c]pyridin-4-yl)benzamide], 0.83 nM; for `NC(=O)c1cnc(N2CCC(NC(=O)c3ccc(-c4nccc5occc45)cc3)CC2)nc1` [Example 174, 2-{4-[4-(furo[3,2-c]pyridin-4-yl)benzamide]piperidin-1-yl}pyrimidine-5-carboxamide], 1.1 nM.

Take `NC(=O)c1ccnc(N2CCC(NC(=O)c3ccc(-c4nccc5occc45)cc3)CC2)n1` [Example 175, 2-{4-[4-(furo[3,2-c]pyridin-4-yl)benzamide]piperidin-1-yl}pyrimidine-4-carboxamide]: the IC50 turned out to be 1.3 nM. For `NC(=O)c1cc(N2CCC(NC(=O)c3ccc(-c4nccc5occc45)cc3)CC2)ccn1` [Example 176, 4-{4-[4-(furo[3,2-c]pyridin-4-yl)benzamide]piperidin-1-yl}picolinamide] the value was 1.2 nM; for `NS(=O)(=O)c1cnc(N2CCC(NC(=O)c3ccc(-c4nccc5occc45)cc3)CC2)nc1` [Example 177, 4-(furo[3,2-c]pyridin-4-yl)-N-[1-(5-sulfamoylpyrimidin-2-yl)piperidin-4-yl]benzamide], 1.2 nM.

With `O=C(NC1CCN(c2nccc(N3CCC3)n2)CC1)c1ccc(-c2nccc3occc23)cc1` [Example 178, N-{1-[4-(azetidin-1-yl)pyrimidin-2-yl]piperidin-4-yl}-4-(furo[3,2-c]pyridin-4-yl)benzamide], the IC50 worked out at 1.9 nM.

As to `O=C(NC1CCN(c2nccc(=O)[nH]2)CC1)c1ccc(-c2nccc3occc23)cc1` [Example 179, 4-(furo[3,2-c]pyridin-4-yl)-N-[1-(6-oxo-1,6-dihydropyrimidin-2-yl)piperidin-4-yl]benzamide], the IC50 was determined as 0.97 nM. In the case of `O=C(NC1CCN(CC(F)(F)F)CC1)c1ccc(-c2nccc3occc23)cc1` [Example 180, 4-(furo[3,2-c]pyridin-4-yl)-N-[1-(2,2,2-trifluoroethyl)piperidin-4-yl]benzamide], the IC50 is 0.96 nM. Turning to `Cc1cc(=O)[nH]c(N2CCC(NC(=O)c3ccc(-c4nccc5occc45)cc3)CC2)n1` [Example 181, 4-(furo[3,2-c]pyridin-4-yl)-N-[1-(4-methyl-6-oxo-1,6-dihydropyrimidin-2-yl)piperidin-4-yl]benzamide], the IC50 was found to be 1.2 nM.

In the case of `O=C(NC1CCN(c2ncc(Br)c(=O)[nH]2)CC1)c1ccc(-c2nccc3occc23)cc1` [Example 182, N-[1-(5-bromo-6-oxo-1,6-dihydropyrimidin-2-yl)piperidin-4-yl]-4-(furo[3,2-c]pyridin-4-yl)benzamide], the IC50 was 2.3 nM. The figure for `Cn1c(N2CCC(NC(=O)c3ccc(-c4nccc5occc45)cc3)CC2)nccc1=O` [Example 183, 4-(furo[3,2-c]pyridin-4-yl)-N-[1-(1-methyl-6-oxo-1,6-dihydropyrimidin-2-yl)piperidin-4-yl]benzamide] is 1.7 nM; for `Cn1c(N2CCC(NC(=O)c3ccc(-c4nccc5occc45)cc3)CC2)cccc1=O` [Example 184, 4-(furo[3,2-c]pyridin-4-yl)-N-[1-(1-methyl-6-oxo-1,6-dihydropyridin-2-yl)piperidin-4-yl]benzamide] it is 2.1 nM; for `CC(C)(O)c1cnc(N2CCC(NC(=O)c3ccc(-c4nccc5occc45)cc3)CC2)nc1` [Example 185, 4-(furo[3,2-c]pyridin-4-yl)-N-{1-[5-(2-hydroxypropan-2-yl)pyrimidin-2-yl]piperidin-4-yl}benzamide] it is 1.7 nM.

In the case of `CC(=O)N1CCC(NC(=O)c2ccc(-c3nccc4occc34)cc2)CC1` [Example 186, N-(1-acetylpiperidin-4-yl)-4-(furo[3,2-c]pyridin-4-yl)benzamide], the IC50 was 2.3 nM. For `O=C(NC1CCN(c2nccc(CO)n2)CC1)c1ccc(-c2nccc3occc23)cc1` [Example 187, 4-(furo[3,2-c]pyridin-4-yl)-N-{1-[4-(hydroxymethyl)pyrimidin-2-yl]piperidin-4-yl}benzamide] the value was 0.8 nM; for `CC(=O)N(C(C)=O)c1cnc(N2CCC(NC(=O)c3ccc(-c4nccc5occc45)cc3)CC2)nc1` [Example 188, N-{1-[5-(N-acetylacetamide)pyrimidin-2-yl]piperidin-4-yl}-4-(furo[3,2-c]pyridin-4-yl)benzamide], 4.3 nM. Turning to `CC(=O)Nc1cnc(N2CCC(NC(=O)c3ccc(-c4nccc5occc45)cc3)CC2)nc1` [Example 189, N-[1-(5-acetamidopyrimidin-2-yl)piperidin-4-yl]-4-(furo[3,2-c]pyridin-4-yl)benzamide], the IC50 came out at 2.3 nM.

`O=C(NC1CCN(c2cccnn2)CC1)c1ccc(-c2nccc3occc23)cc1` [Example 190, 4-(furo[3,2-c]pyridin-4-yl)-N-[1-(pyridazin-3-yl)piperidin-4-yl]benzamide]: the concentration for half-maximal inhibition (IC50) came out at 0.76 nM. `O=C(N[C@H]1CCN(c2ncccn2)C1)c1ccc(-c2nccc3occc23)cc1` [Example 191, (S)-4-(furo[3,2-c]pyridin-4-yl)-N-[1-(pyrimidin-2-yl)pyrrolidin-3-yl]benzamide]: the IC50 was 0.63 nM.

For `O=C(N[C@@H]1CCN(c2ncccn2)C1)c1ccc(-c2nccc3occc23)cc1` [Example 192, (R)-4-(furo[3,2-c]pyridin-4-yl)-N-[1-(pyrimidin-2-yl)pyrrolidin-3-yl]benzamide], the IC50 was found to be 7.7 nM. On to `O=C(N[C@H]1CCN(c2ncc(CO)cn2)C1)c1ccc(-c2nccc3occc23)cc1` [Example 193, (S)-4-(furo[3,2-c]pyridin-4-yl)-N-{1-[5-(hydroxymethyl)pyrimidin-2-yl]pyrrolidin-3-yl}benzamide], for which the concentration for half-maximal inhibition (IC50) was 1 nM. For `O=C(N[C@H]1CCN(c2ncc(F)cn2)C1)c1ccc(-c2nccc3occc23)cc1` [Example 194, (S)-N-[1-(5-fluoropyrimidin-2-yl)pyrrolidin-3-yl]-4-(furo[3,2-c]pyridin-4-yl)benzamide] the value was 0.94 nM. The figure for `O=C(N[C@H]1CCN(c2ccnc(Cl)c2)C1)c1ccc(-c2nccc3occc23)cc1` [Example 195, (S)-N-[1-(2-chloropyridin-4-yl)pyrrolidin-3-yl]-4-(furo[3,2-c]pyridin-4-yl)benzamide] is 1.7 nM. For `O=C(N[C@H]1CCN(c2ccnc(F)c2)C1)c1ccc(-c2nccc3occc23)cc1` [Example 196, (S)-N-[1-(2-fluoropyridin-4-yl)pyrrolidin-3-yl]-4-(furo[3,2-c]pyridin-4-yl)benzamide] the value was 1.5 nM; for `O=C(N[C@H]1CCN(c2ccc(CO)cn2)C1)c1ccc(-c2nccc3occc23)cc1` [Example 197, (S)-4-(furo[3,2-c]pyridin-4-yl)-N-{1-[5-(hydroxymethyl)pyridin-2-yl]pyrrolidin-3-yl}benzamide], 6.1 nM; for `O=C(N[C@H]1CCN(c2cnc(CO)cn2)C1)c1ccc(-c2nccc3occc23)cc1` [Example 198, (S)-4-(furo[3,2-c]pyridin-4-yl)-N-{1-[5-(hydroxymethyl)pyrazin-2-yl]pyrrolidin-3-yl}benzamide], 2.3 nM. Turning to `O=C(N[C@H]1CCN(CC(F)(F)F)C1)c1ccc(-c2nccc3occc23)cc1` [Example 199, (S)-4-(furo[3,2-c]pyridin-4-yl)-N-[1-(2,2,2-trifluoroethyl)pyrrolidin-3-yl]benzamide], the IC50 came out at 9.7 nM. The figure for `CC(C)(O)c1cnc(N2CC[C@H](NC(=O)c3ccc(-c4nccc5occc45)cc3)C2)nc1` [Example 200, (S)-4-(furo[3,2-c]pyridin-4-yl)-N-{1-[5-(2-hydroxypropan-2-yl)pyrimidin-2-yl]pyrrolidin-3-yl}benzamide] is 1.1 nM; for `N#Cc1cnc(N2CC[C@H](NC(=O)c3ccc(-c4nccc5occc45)cc3)C2)nc1` [Example 201, (S)—N-[1-(5-cyanopyrimidin-2-yl)pyrrolidin-3-yl]-4-(furo[3,2-c]pyridin-4-yl)benzamide] it is 1.2 nM. The figure for `NC(=O)c1cnc(N2CC[C@H](NC(=O)c3ccc(-c4nccc5occc45)cc3)C2)nc1` [Example 202, (S)-2-(3-[4-(furo[3,2-c]pyridin-4-yl)benzamide]pyrrolidin-1-yl)pyrimidine-5-carboxamide] is 1.5 nM; for `O=C(N[C@@H]1CN(c2ncc(CO)cn2)C[C@H]1F)c1ccc(-c2nccc3occc23)cc1` [Example 203, N-{(3R,4R)-4-fluoro-1-[5-(hydroxymethyl)pyrimidin-2-yl]pyrrolidin-3-yl}-4-(furo[3,2-c]pyridin-4-yl)benzamide] it is 1.9 nM. For the molecule `O=C(N[C@@H]1CN(c2ncc(CO)cn2)C[C@@H]1F)c1ccc(-c2nccc3occc23)cc1` [Example 204, N-{(3R,4S)-4-fluoro-1-[5-(hydroxymethyl)pyrimidin-2-yl]pyrrolidin-3-yl}-4-(furo[3,2-c]pyridin-4-yl)benzamide], the IC50 amounted to 1.1 nM.

Source of the values: patent US20230339937A1, “CONDENSED RING COMPOUNDS THAT INHIBIT H-PGDS” (SATO PHARMACEUTICAL CO., LTD., priority 2020, published 2023).
